Key:
[1] = biological target: T1, Muscarinic acetylcholine receptor M2 (Homo sapiens, UniProt P08172); type: functional, cell-based
T1 sequence (P08172 whole entry): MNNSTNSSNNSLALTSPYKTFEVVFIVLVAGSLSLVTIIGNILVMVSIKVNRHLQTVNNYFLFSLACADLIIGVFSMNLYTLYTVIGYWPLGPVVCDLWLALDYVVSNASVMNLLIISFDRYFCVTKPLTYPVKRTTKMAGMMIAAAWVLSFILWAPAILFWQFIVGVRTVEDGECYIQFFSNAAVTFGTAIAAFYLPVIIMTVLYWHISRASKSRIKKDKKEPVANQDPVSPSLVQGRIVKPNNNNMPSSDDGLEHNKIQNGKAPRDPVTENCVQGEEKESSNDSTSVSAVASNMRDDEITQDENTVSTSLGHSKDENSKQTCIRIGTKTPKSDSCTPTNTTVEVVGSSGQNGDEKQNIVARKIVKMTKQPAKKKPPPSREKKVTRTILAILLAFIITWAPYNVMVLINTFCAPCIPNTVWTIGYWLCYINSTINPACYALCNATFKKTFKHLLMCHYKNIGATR

[2] = biological target: T2, Alpha-2A adrenergic receptor (Homo sapiens, UniProt P08913); type: functional, cell-based
T2 sequence (P08913 whole entry): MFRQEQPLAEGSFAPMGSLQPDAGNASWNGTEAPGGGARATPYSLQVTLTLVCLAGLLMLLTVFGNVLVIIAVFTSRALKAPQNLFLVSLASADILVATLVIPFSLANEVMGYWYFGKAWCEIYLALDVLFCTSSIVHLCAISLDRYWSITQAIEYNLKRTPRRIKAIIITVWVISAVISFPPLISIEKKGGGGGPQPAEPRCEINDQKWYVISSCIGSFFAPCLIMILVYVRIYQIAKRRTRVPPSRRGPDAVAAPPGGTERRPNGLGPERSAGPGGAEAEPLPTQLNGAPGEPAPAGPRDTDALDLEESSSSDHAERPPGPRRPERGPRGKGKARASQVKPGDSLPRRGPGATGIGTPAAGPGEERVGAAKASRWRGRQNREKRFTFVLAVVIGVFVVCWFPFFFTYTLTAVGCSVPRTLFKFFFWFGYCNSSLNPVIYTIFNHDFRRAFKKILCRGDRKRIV

[3] = biological target: D(1A) dopamine receptor (Homo sapiens, UniProt P21728); type: functional, cell-based
D(1A) dopamine receptor, sequence (P21728 whole entry): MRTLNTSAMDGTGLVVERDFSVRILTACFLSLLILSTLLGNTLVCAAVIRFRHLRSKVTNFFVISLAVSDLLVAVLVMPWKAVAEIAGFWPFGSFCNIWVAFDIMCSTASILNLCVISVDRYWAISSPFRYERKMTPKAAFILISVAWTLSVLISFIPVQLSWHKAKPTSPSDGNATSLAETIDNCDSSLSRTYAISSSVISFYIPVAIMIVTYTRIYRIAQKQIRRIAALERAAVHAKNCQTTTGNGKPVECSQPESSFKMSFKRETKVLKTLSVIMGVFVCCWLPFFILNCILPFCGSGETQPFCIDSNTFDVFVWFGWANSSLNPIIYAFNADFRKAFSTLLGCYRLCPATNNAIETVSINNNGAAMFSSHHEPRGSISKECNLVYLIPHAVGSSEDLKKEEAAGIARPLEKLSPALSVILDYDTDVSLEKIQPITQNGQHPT

[4] = biological target: Bile salt export pump (Homo sapiens, UniProt O95342); type: functional
Bile salt export pump, sequence (O95342 whole entry): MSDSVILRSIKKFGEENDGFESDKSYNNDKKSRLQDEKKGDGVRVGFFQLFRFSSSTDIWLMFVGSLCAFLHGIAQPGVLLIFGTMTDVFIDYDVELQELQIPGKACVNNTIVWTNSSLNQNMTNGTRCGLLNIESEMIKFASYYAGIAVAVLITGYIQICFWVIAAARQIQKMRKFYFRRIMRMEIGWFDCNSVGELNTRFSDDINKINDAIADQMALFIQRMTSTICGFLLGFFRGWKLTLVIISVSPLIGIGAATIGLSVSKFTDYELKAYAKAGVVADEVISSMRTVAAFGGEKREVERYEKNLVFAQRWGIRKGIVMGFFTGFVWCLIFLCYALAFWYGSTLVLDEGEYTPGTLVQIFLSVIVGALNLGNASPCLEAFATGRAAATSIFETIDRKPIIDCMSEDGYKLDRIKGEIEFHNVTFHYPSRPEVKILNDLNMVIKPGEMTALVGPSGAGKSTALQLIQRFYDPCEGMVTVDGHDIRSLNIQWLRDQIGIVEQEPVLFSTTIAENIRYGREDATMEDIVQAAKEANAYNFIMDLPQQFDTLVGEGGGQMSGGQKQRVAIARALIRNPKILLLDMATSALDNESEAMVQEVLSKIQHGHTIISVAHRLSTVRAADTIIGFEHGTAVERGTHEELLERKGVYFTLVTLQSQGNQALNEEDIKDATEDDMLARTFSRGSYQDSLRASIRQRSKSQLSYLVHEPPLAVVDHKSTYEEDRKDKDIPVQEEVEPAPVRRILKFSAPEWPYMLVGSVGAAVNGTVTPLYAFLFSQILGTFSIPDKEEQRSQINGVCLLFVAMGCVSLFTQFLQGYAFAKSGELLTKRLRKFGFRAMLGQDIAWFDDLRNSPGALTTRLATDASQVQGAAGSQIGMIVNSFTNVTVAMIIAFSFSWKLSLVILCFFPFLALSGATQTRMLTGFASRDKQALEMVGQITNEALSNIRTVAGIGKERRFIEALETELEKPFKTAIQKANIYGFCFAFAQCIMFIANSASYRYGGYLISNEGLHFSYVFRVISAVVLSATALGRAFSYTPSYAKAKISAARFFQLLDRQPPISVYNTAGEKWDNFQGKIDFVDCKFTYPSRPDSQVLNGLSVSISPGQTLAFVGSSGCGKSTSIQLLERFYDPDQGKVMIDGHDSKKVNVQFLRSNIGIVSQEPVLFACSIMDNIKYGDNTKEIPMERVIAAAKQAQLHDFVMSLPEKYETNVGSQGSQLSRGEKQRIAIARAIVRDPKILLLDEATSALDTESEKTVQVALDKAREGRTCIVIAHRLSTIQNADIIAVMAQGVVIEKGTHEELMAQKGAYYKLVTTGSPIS

[5] = biological target: Sodium-dependent dopamine transporter (Homo sapiens, UniProt Q01959)
Sodium-dependent dopamine transporter, sequence (Q01959 whole entry): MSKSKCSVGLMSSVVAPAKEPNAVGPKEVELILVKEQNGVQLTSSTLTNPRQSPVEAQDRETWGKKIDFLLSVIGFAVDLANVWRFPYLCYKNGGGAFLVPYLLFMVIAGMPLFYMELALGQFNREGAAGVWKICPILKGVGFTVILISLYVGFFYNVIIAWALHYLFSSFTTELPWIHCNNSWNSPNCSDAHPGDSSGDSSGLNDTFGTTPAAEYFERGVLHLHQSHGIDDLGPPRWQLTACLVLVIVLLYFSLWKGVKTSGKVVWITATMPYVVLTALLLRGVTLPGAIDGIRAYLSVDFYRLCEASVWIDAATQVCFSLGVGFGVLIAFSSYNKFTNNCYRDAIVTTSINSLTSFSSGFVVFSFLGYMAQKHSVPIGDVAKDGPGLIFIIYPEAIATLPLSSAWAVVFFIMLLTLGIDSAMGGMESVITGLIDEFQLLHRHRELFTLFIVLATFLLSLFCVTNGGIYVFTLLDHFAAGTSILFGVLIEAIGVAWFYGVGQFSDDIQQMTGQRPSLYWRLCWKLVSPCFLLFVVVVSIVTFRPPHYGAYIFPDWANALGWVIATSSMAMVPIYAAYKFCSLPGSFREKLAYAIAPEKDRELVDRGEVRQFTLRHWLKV

[6] = biological target: T3, Prostaglandin G/H synthase 1 (Rattus norvegicus, UniProt Q63921); type: functional
T3 sequence (Q63921 whole entry): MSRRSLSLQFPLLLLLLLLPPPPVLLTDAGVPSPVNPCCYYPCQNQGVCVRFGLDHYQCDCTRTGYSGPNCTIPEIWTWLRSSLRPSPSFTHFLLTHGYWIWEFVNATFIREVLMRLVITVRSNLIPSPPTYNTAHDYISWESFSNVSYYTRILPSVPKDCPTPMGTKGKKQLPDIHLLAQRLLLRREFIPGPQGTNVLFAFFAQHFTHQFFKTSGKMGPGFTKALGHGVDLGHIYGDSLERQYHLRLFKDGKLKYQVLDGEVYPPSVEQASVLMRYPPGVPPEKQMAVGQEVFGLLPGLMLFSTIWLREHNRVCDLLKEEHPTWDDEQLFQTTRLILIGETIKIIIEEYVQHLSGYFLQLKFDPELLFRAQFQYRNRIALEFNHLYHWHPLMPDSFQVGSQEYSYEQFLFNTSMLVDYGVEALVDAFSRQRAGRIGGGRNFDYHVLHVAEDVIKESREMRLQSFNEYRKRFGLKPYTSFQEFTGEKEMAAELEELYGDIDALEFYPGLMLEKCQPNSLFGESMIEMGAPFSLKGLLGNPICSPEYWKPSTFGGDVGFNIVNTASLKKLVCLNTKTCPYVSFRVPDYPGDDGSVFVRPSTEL

[7] = biological target: Gamma-aminobutyric acid receptor subunit alpha-1 (Rattus norvegicus, UniProt P62813); type: functional
[8] = biological target: Melanocortin receptor 3 (Homo sapiens, UniProt P41968)
Melanocortin receptor 3, sequence (P41968 whole entry): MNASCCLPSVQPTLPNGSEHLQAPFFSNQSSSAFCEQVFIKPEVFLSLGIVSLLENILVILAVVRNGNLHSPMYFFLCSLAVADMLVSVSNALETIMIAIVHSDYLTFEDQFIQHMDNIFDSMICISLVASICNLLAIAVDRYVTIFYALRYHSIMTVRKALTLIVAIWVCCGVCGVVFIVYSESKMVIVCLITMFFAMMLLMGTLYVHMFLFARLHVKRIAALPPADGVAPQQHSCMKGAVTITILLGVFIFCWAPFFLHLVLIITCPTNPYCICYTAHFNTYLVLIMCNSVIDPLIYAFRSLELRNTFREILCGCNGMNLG

[9] = biological target: T4, 5-hydroxytryptamine receptor 2C (Homo sapiens, UniProt P28335)
T4 sequence (P28335 whole entry): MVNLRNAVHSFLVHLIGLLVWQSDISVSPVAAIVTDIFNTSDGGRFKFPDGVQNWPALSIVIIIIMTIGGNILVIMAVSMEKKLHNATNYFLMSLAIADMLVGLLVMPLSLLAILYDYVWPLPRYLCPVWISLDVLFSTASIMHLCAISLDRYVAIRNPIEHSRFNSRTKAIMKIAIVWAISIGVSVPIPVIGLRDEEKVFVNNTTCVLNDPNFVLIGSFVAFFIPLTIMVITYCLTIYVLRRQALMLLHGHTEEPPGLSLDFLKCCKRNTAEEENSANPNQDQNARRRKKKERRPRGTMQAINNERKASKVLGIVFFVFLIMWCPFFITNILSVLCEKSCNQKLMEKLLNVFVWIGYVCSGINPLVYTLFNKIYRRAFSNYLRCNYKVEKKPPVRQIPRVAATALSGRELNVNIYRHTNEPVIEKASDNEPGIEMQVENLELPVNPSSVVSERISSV

[10] = biological target: T2, Alpha-2A adrenergic receptor; type: functional, cell-based; remark: listed apart in the source
[11] = biological target: Delta-type opioid receptor (Homo sapiens, UniProt P41143)
Delta-type opioid receptor, sequence (P41143 whole entry): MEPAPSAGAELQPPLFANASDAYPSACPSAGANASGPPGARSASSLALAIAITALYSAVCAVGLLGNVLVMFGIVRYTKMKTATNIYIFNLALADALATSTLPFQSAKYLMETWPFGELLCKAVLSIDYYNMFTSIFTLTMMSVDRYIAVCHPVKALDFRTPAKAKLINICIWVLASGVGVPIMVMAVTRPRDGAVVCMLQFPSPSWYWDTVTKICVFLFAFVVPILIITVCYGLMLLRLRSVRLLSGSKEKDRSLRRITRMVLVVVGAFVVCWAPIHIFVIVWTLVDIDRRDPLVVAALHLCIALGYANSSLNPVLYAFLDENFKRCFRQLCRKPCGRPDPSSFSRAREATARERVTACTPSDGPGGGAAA

[12] = biological target: 5-hydroxytryptamine receptor 2B (Homo sapiens, UniProt P41595); type: functional, cell-based
5-hydroxytryptamine receptor 2B, sequence (P41595 whole entry): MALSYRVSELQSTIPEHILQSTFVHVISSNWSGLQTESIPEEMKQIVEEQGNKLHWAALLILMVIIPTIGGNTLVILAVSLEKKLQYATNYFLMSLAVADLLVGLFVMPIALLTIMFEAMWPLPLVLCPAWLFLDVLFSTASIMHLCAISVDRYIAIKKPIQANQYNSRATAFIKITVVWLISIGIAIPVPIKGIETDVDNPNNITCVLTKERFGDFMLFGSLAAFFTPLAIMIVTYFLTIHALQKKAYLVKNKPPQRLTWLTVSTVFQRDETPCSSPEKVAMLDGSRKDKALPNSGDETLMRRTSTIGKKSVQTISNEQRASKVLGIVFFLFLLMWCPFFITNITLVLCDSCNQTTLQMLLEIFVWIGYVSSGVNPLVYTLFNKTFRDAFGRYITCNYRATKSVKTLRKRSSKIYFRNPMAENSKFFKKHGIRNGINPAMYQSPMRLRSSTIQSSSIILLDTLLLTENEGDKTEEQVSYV

[13] = biological target: Sodium-dependent noradrenaline transporter (Homo sapiens, UniProt P23975)
Sodium-dependent noradrenaline transporter, sequence (P23975 whole entry): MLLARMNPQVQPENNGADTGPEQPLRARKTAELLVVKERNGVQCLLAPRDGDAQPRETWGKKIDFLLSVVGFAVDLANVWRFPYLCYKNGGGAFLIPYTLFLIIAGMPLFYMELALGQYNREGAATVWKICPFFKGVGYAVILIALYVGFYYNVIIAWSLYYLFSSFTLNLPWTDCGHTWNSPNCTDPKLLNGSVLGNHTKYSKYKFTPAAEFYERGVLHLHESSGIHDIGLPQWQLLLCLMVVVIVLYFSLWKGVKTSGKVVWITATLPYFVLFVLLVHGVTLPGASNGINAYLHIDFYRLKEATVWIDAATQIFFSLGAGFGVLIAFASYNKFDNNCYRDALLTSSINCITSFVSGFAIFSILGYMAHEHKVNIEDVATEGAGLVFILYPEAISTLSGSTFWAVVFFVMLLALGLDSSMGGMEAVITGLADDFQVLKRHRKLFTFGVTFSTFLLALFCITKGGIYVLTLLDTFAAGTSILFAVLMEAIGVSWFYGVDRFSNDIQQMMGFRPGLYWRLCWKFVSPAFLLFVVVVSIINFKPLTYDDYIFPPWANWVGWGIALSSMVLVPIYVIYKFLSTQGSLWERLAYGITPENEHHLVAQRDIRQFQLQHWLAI

[14] = biological target: D(3) dopamine receptor (Homo sapiens, UniProt P35462)
D(3) dopamine receptor, sequence (P35462 whole entry): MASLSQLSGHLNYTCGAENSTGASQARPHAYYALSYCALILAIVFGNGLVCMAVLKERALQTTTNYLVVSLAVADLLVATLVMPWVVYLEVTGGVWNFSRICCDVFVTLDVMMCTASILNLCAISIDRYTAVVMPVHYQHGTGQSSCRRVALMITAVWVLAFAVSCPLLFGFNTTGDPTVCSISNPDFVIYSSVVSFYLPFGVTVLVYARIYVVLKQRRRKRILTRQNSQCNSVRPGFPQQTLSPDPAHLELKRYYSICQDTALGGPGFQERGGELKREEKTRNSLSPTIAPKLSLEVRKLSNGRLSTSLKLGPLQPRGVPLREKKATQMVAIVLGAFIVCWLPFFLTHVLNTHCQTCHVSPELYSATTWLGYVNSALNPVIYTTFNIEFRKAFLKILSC

[15] = biological target: T5, Adenosine receptor A3 (Homo sapiens, UniProt P0DMS8)
T5 sequence (P0DMS8 whole entry): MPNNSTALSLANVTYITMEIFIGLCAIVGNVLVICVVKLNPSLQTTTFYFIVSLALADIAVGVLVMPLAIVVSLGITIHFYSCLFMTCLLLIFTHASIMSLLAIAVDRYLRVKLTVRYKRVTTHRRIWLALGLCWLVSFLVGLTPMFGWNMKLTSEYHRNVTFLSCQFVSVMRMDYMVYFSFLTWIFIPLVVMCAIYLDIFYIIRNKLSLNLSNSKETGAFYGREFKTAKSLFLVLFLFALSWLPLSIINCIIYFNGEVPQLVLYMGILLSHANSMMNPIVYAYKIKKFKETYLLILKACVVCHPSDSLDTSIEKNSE
Further: assay procedure not described here.

SMILES	AC50 [1]	AC50 [2]	AC50 [3]	AC50 [4]	AC50 [5]	AC50 [6]	AC50 [7]	AC50 [8]	AC50 [9]	AC50 [10]	AC50 [11]	AC50 [12]	AC50 [13]	AC50 [14]	AC50 [15]
CN(C)/N=N/c1[nH]cnc1C(N)=O [DACARBAZINE]	> 10 µM	> 10 µM	> 10 µM	> 300 µM	> 10 µM	> 10 µM	> 10 µM	> 10 µM	> 30 µM	> 10 µM	> 30 µM	> 10 µM	> 10 µM	> 30 µM	> 10 µM
c1ccc([C@H]2CN3CCSC3=N2)cc1 [LEVAMISOLE]	> 30 µM	> 30 µM	1.6 µM	> 300 µM	> 30 µM	> 30 µM	> 30 µM	> 30 µM	> 30 µM	> 30 µM	> 30 µM	> 30 µM	> 30 µM	> 30 µM	> 30 µM
N[C@@H]1[C@H]2CN(c3nc4c(cc3F)c(=O)c(C(=O)O)cn4-c3ccc(F)cc3F)C[C@@H]12 [TROVAFLOXACIN]	> 30 µM	> 30 µM	> 30 µM	> 300 µM	> 30 µM	> 30 µM	> 30 µM	> 30 µM	> 30 µM	> 30 µM	> 30 µM	> 30 µM	> 30 µM	> 30 µM	> 30 µM
CC[C@H]1OC(=O)[C@H](C)[C@@H](O[C@H]2C[C@@](C)(OC)[C@@H](O)[C@H](C)O2)[C@H](C)[C@@H](O[C@@H]2O[C@H](C)C[C@H](N(C)C)[C@H]2O)[C@](C)(O)C[C@@H](C)CN(C)[C@H](C)[C@@H](O)[C@]1(C)O [AZITHROMYCIN]	> 10 µM	> 10 µM	> 10 µM	200 µM	> 10 µM	> 30 µM	> 10 µM	> 30 µM	> 30 µM	> 10 µM	> 10 µM	> 10 µM	> 10 µM	> 10 µM	> 30 µM
CNC1Cc2ccccc2N(C)c2ccccc21 (stereo not given) [METAPRAMINE]	> 30 µM	> 30 µM	> 30 µM	> 300 µM	> 30 µM	> 30 µM	> 30 µM	> 30 µM	29 µM	3.2 µM	> 30 µM	0.95 µM	16 µM	> 30 µM	> 30 µM
CN1C(=O)CCS(=O)(=O)C1c1ccc(Cl)cc1 (stereo not given) [CHLORMEZANONE]	> 10 µM	> 10 µM	> 10 µM	> 300 µM	> 10 µM	> 10 µM	> 10 µM	> 10 µM	> 30 µM	> 10 µM	> 30 µM	> 10 µM	> 10 µM	> 30 µM	> 10 µM
O=P1(NCCCl)OCCCN1CCCl (stereo not given) [IFOSFAMIDE]	> 30 µM	> 30 µM	> 30 µM	> 300 µM	> 30 µM	> 30 µM	> 30 µM	> 30 µM	> 30 µM	> 30 µM	> 30 µM	> 30 µM	> 30 µM	> 30 µM	> 30 µM
O=C(OCC(O)CO)c1ccccc1Nc1ccnc2cc(Cl)ccc12 (stereo not given) [GLAFENINE]	> 10 µM	> 30 µM	> 30 µM	15 µM	> 30 µM	> 30 µM	0.046 µM	> 30 µM	> 30 µM	> 30 µM	> 30 µM	> 30 µM	> 30 µM	> 30 µM	7.2 µM
Nc1ccn([C@H]2CC[C@@H](CO)O2)c(=O)n1 [ZALCITABINE]	> 10 µM	> 10 µM	> 10 µM	> 300 µM	> 10 µM	> 10 µM	> 10 µM	> 10 µM	> 30 µM	> 10 µM	> 30 µM	> 10 µM	> 10 µM	> 10 µM	> 10 µM
CCCCN1C[C@H](O)[C@@H](O)[C@H](O)[C@H]1CO	> 30 µM	> 30 µM	> 30 µM	> 300 µM	> 30 µM	> 30 µM	> 30 µM	> 30 µM	> 30 µM	> 30 µM	> 30 µM	> 30 µM	> 30 µM	> 30 µM	> 30 µM
C[C@]12CCC(=O)C=C1CC[C@@H]1[C@@H]2[C@@H](O)C[C@@]2(C)[C@H]1CC[C@]2(O)C(=O)CO [HYDROCORTISONE]	> 10 µM	> 10 µM	> 10 µM	> 300 µM	> 10 µM	> 30 µM	> 10 µM	> 30 µM	> 30 µM	> 10 µM	> 30 µM	> 10 µM	> 10 µM	> 10 µM	> 30 µM
COc1cc2nc(N(C)CCCNC(=O)C3CCCO3)nc(N)c2cc1OC (stereo not given) [ALFUZOSIN]	> 30 µM	> 30 µM	> 30 µM	> 300 µM	> 30 µM	> 30 µM	> 30 µM	> 30 µM	> 30 µM	6.8 µM	> 30 µM	> 30 µM	13 µM	15 µM	> 30 µM
